Measured values as given in patent publication US11622937B2, “Polyphenolic polymer to make water-insoluble molecules become water-soluble” (priority 2015, dated 2023).
Where a name gives a salt, the structure may show the parent alone.

Assays:
[1] = cited from earlier work
[2] = Solubility with Polyphenolic Polymer in water; details: molecule formulated with Polyphenolic Polymer

| Compound | Reported Solubility in water [1] | Solubility with Polyphenolic Polymer in water (more than 99%) [2] |
| --- | --- | --- |
| Cc1cc2c(s1)Nc1ccccc1N=C2N1CCN(C)CC1 [Olanzapine] | Insoluble |  |
| COc1cc([C@@H]2c3cc4c(cc3[C@@H](O[C@@H]3O[C@@H]5CO[C@@H](C)O[C@H]5[C@H](O)[C@H]3O)[C@H]3COC(=O)[C@H]23)OCO4)cc(OC)c1O [Etoposide] | Insoluble |  |
| CC[C@H](C)C(=O)O[C@H]1C[C@H](O)C=C2C=C[C@H](C)[C@H](CC[C@@H](O)C[C@@H](O)CC(=O)O)[C@H]21 [Pravastatin Sodium] | Insoluble | Water Soluble |
| COc1ccccc1OCCNCC(O)COc1cccc2[nH]c3ccccc3c12 (stereo not drawn) [Carvedilol] | Insoluble |  |
| COc1ccc(CCN2CCC(Nc3nc4ccccc4n3Cc3ccc(F)cc3)CC2)cc1 [Astemizole] | Insoluble |  |
| CCc1nc(N)nc(N)c1-c1ccc(Cl)cc1 [Pyrimethamine] | Insoluble | Water Soluble |
| CC(C)(C)NC(=O)[C@H]1CC[C@H]2[C@@H]3CC[C@H]4NC(=O)C=C[C@]4(C)[C@H]3CC[C@]12C [Finasteride] | Insoluble |  |
| Cc1nc2n(c(=O)c1CCN1CCC(c3noc4cc(F)ccc34)CC1)CCCC2O (stereo not drawn) [Paliperidone] | Insoluble | Water Soluble |
| N[C@@H](Cc1ccc(N(CCCl)CCCl)cc1)C(=O)O [Melphalan(cancer), Melphalan] |  | Water Soluble |
| C[C@@H]1[C@H](O)[C@@H](C)/C=C/C=C/CC/C=C/C=C/C=C/C=C/C(O[C@H]2O[C@H](C)[C@@H](O)[C@H](N)[C@@H]2O)CC2O[C@](O)(CC(O)C(O)CCC(O)CC(O)CC(O)CC(=O)O[C@H]1C)CC(O)C2C(=O)O (stereo partly drawn) [Nystatin mycostatin] |  | Water Soluble |
| Cn1cnc([N+](=O)[O-])c1Sc1ncnc2nc[nH]c12 [Azathioprine] | Insoluble |  |
| Ivermectin |  | Water Soluble |
| COC1=C(OC)C(=O)C(C/C=C(\C)CC/C=C(\C)CC/C=C(\C)CC/C=C(\C)CC/C=C(\C)CC/C=C(\C)CC/C=C(\C)CC/C=C(\C)CC/C=C(\C)CCC=C(C)C)=C(C)C1=O [CoQ10] | Insoluble | Water Soluble |
| CC(=O)Nc1ccc(O)cc1 [Paracetamol] | Insoluble |  |
| CO[C@H]1/C=C/O[C@@]2(C)Oc3c(C)c(O)c4c(O)c(c(/C=N/N5CCN(C)CC5)c(O)c4c3C2=O)NC(=O)/C(C)=C\C=C\[C@H](C)[C@H](O)[C@@H](C)[C@@H](O)[C@@H](C)[C@H](OC(C)=O)[C@@H]1C [Rifampin] | Insoluble | Water Soluble |
| NC(N)=Nc1nc(CSCCC(N)=NS(N)(=O)=O)cs1 [Famotidine] | Insoluble |  |
| COC(=O)[C@H](c1ccccc1Cl)N1CCc2sccc2C1 [Clopidogrel Sulfate] | Insoluble |  |
| COC1=CC(=O)C[C@@H](C)[C@]12Oc1c(Cl)c(OC)cc(OC)c1C2=O [Griseofulvin] | Insoluble |  |
| Pyrethrin |  | Water Soluble |
| CS(=O)(=O)OCCCCOS(C)(=O)=O [Busulphan] | Insoluble |  |
| COc1ccc2c(c1)c(CC(=O)OCC(=O)O)c(C)n2C(=O)c1ccc(Cl)cc1 [Acemetacin] | Insoluble |  |
| COCCOC(=O)C1=C(C)NC(C)=C(C(=O)OC(C)C)C1c1cccc([N+](=O)[O-])c1 (stereo not drawn) [Nimodipine] | Insoluble |  |

| Compound | Reported Solubility in water [1] | Solubility with Polyphenolic Polymer in water (more than 99%) [2] |
| --- | --- | --- |
| CC1(C)S[C@@H]2[C@H](NC(=O)C(C(=O)O)c3ccccc3)C(=O)N2[C@H]1C(=O)O (stereo partly drawn) [Carbenicillin disodium] | Insoluble |  |
| Nc1nnc(-c2cccc(Cl)c2Cl)c(N)n1 [6-(2,3-Dichlorophenyl)-1,2,4-triazine-3,5-diamine] | Insoluble |  |
| CO/N=C(\C(=O)N[C@@H]1C(=O)N2C(C(=O)O)=C(COC(C)=O)CS[C@H]12)c1csc(N)n1 [Cefotaxime] | Insoluble |  |
| O=C(O)Cc1ccccc1Nc1c(Cl)cccc1Cl [Diclofenac(pain), Diclofenac] | Insoluble |  |
| C[C@@H]1CC[C@H]2[C@@H](C)C(=O)O[C@@H]3O[C@@]4(C)CC[C@@H]1[C@]32OO4 [Artemisinin] | Insoluble |  |
| C/C(=C\c1csc(C)n1)[C@@H]1C[C@@H]2O[C@@H]2CCC[C@H](C)[C@H](O)[C@@H](C)C(=O)C(C)(C)[C@@H](O)CC(=O)O1 [Epothilone A] |  | Water Soluble |
| COc1ccc2c(c1)c(CC(=O)O)c(C)n2C(=O)c1ccc(Cl)cc1 [Indomethacin] | Insoluble |  |
| O=c1[nH]c2ccccc2n1CCCN1CCC(n2c(=O)[nH]c3cc(Cl)ccc32)CC1 [Domperidone] | Insoluble |  |
| Oc1ccc(C=Cc2cc(O)cc(O)c2)cc1 [Resveratrol] | Insoluble |  |
| CCc1cccc2c3c([nH]c12)C(CC)(CC(=O)O)OCC3 (stereo not drawn) [Etodolac] | Insoluble |  |
| C[C@]12C=CC(=O)C=C1CC[C@@H]1[C@@H]2C(=O)C[C@@]2(C)[C@H]1CC[C@]2(O)C(=O)CO [Prednisone] | Insoluble |  |
| CC(=O)O[C@H]1C(=O)[C@@]2(C)[C@H]([C@H](OC(=O)c3ccccc3)[C@]3(O)C[C@H](OC(=O)[C@H](O)[C@@H](NC(=O)c4ccccc4)c4ccccc4)C(C)=C1C3(C)C)[C@]1(OC(C)=O)CO[C@@H]1C[C@@H]2O [Paclitaxel from Taxus Brevifolia, Paclitaxel] | Insoluble |  |
| C=CC(=O)N1CCC[C@@H](n2nc(-c3ccc(Oc4ccccc4)cc3)c3c(N)ncnc32)C1 [PCI-32765] | Insoluble |  |
| COc1cccc2c1C(=O)c1c(O)c3c(c(O)c1C2=O)C[C@@](O)(C(C)=O)C[C@@H]3O[C@H]1C[C@H](N)[C@H](O)[C@H](C)O1 [Daunorubicin hydrochloride] | Insoluble |  |
| C[C@@H](O[C@H]1OCCN(Cc2n[nH]c(=O)[nH]2)[C@H]1c1ccc(F)cc1)c1cc(C(F)(F)F)cc(C(F)(F)F)c1 [Aprepitant] | Insoluble |  |
| CC[C@H](C)C(=O)O[C@H]1CCC=C2C=C[C@H](C)[C@H](CC[C@@H]3C[C@@H](O)CC(=O)O3)[C@H]21 [Mevastatin] | Insoluble |  |
| Nc1ncn([C@@H]2O[C@H](CO)[C@@H](O)[C@H]2O)c(=O)n1 [Azacitidine (Vidaza), Azacitidine] | Insoluble |  |
| O=C1CCc2ccc(OCCCCN3CCN(c4cccc(Cl)c4Cl)CC3)cc2N1 [Aripiprazole, 99%, Aripiprazole] | Insoluble |  |
| CC[C@H](CC[C@@H](C)[C@H]1CC[C@H]2[C@@H]3CC=C4C[C@@H](O)CC[C@]4(C)[C@H]3CC[C@]12C)C(C)C [Beta-sitosterol] |  | Water Soluble |
| CN(C)CCC[C@@]1(c2ccc(F)cc2)OCc2cc(C#N)ccc21 [Escitalopram] | Insoluble |  |
| CCn1cc(C(=O)O)c(=O)c2cc(F)c(N3CCNCC3)cc21 [Norfloxacin(antibiotic), Norfloxacin] | Insoluble |  |
